Measured values published in patent US20250388542A1, “ANALOGUES OF PENTAMIDINE AND USES THEREFOR” (Auransa Inc., priority 2018, published 2025).
Blank lines part the entries; values can stand above or below the compound they belong to.

How the values were obtained:
Hep3B-luc = experiment: CellTiter-Glo cell viability, liver cell lines, 8 days; format: cell-based; conditions: full growth media
Experimental: (§1) The objective of this study is to investigate the effect of Compound 1 on cell viability of various types of liver cancer. Ten (10) different liver cancer cell lines were employed in the study. Each liver cell line shown in Table 4 was treated with Compound 1, pentamidine, as reference control, a standard of care (cisplatin) and culture medium contains 0.2% [v/v] DMSO vehicle control and IC50 values were obtained as described above. The raw data values from the CellTiter-Glo™ cell viability assay expressed in relative luminescence units were normalized to the vehicle for each individual plate, and any reduction in luminescence indicated a decrease in viability (%). The data was analyzed in GraphPad PRISM using a non-linear sigmoidal plot with variable slope (asymmetric four-point linear regression), and an IC50 value for each compound was generated. The experiment tested pentamidine, compound 1, and standard-of-care control Cisplatin in full growth media for 8 days. Cells were initially treated with the test compounds on Day 0, and the cells were then replenished with fresh compound dilutions on Day 3. Pentamidine, Compound 1, and cisplatin were tested at 9 concentration points; 100, 33.33, 11.11, 3.70, 1.23, 0.41, 0.14, 0.05, and 0.02 μM (final DMSO concentration=0.5%). In particular, the IC50 values of pentamidine and Compound 1 were 0.8 and 0.6 μM in Hep3B-luc, respectively.
The experiment tested pentamidine, Compound 1, and standard of care control, cisplatin, in full growth media for 8 days. Hep-3b cells were initially treated with the test compounds on Day 0, and the cells were then replenished with fresh compound dilutions on Day 3. […] The raw data values from the CellTiter-Glo™ cell viability assay expressed in relative luminescence units were normalized to the vehicle for each individual plate, and any reduction in luminescence indicated a decrease in viability (%). The data was analyzed in GraphPad PRISM using a non-linear sigmoidal plot with variable slope (asymmetric four-point linear regression), and an IC50 value for each compound was generated. […]

DU4475 = experiment: CellTiter-Glo cytotoxicity, cancer cell line panel / breast cancer study; format: cell-based; conditions: DU4475, Breast carcinoma
Experimental: (§2) The objective of this study is to investigate potential cell killing effect of Compounds 1-15 on 3 cancer cell lines. 50% inhibition concentration (IC50) was determined for these compounds in various cancer cell lines using CellTiter-Glo™ luminescent cell viability assay at different compound concentrations. Each cell line (e.g., NCI-H209; NCI-H69; and SW1271) was treated with Compounds 1-15 and culture medium contains 0.2% [v/v] DMSO vehicle control. All the cells were cultured in the media supplemented with 10-20% fetal bovine serum at 37° C., 5% CO2 and 95% humidity.
(§3) The objective of this study is to investigate the effect of Compound 1 on cytotoxicity against 61 different types of cancer cell lines. IC50 were values were obtained using CellTiter-Glo™ as described above. Each cell line shown in Table 3 was treated with Compound 1, a standard chemotherapy drug, cisplatin, as reference control and culture medium contains 0.2% [v/v] DMSO vehicle control. All cancer cell lines were cultured in media supplemented with 10-20% fetal bovine serum at 37° C., 5% CO2 and 95% humidity.
(§4) The objective of this study is to investigate the effect of Compound 1 on cell viability of various types of breast cancer. Four different breast cancer cell lines were employed in the study. Each cell line shown in Table 5 was treated with Compound 1 and standard of care (cisplatin) and culture medium contains 0.2% [v/v] DMSO vehicle control and IC50 values were obtained as described above. The raw data values from the CellTiter-Glo™ cell viability assay expressed in relative luminescence units were normalized to the vehicle for each individual plate, and any reduction in luminescence indicated a decrease in viability (%). The data was analyzed in GraphPad PRISM using a non-linear sigmoidal plot with variable slope (asymmetric four-point linear regression), and an IC50 value for each compound was generated. The experiment tested pentamidine, compound 1, and standard-of-care control Cisplatin in full growth media for 8 days. Cells were initially treated with the test compounds on Day 0, and the cells were then replenished with fresh compound dilutions on Day 3. Pentamidine, Compound 1, and cisplatin were tested at 9 concentration points; 100, 33.33, 11.11, 3.70, 1.23, 0.41, 0.14, 0.05, and 0.02 μM (final DMSO concentration=0.5%).

ZR-75-1 = experiment: as above; format: cell-based; conditions: ZR-75-1, Invasive ductal carcinoma
Experimental: as §2, §3, §4

HCC1954 = experiment: as above; format: cell-based; conditions: HCC1954, Ductal breast carcinoma
Experimental: as §2, §3, §4

NCI-H209 = experiment: CellTiter-Glo luminescent cell viability assay; format: cell-based; conditions: Homo sapiens
Experimental: as §2

SW1271 = experiment: CellTiter-Glo luminescent cell viability assay; format: cell-based
Experimental: as §2

NCI-H69 = experiment: CellTiter-Glo luminescent cell viability assay; format: cell-based; conditions: Homo sapiens
Experimental: as §2

Human microsomal CL rate = format: in vitro ADME; conditions: human microsomes
HEP3B2.7-1 = experiment: CellTiter-Glo cell viability, liver cell lines, 8 days; format: cell-based
Experimental: as §1

SK-HEP-1 = experiment: as above; format: cell-based; conditions: Homo sapiens
Experimental: as §1

[1] = Pharmacokinetics in liver and tissues after oral administration; format: in vivo, mice; conditions: p.o.
Experimental: Compound 1 (20 mg per kg), Compound 5 (10 mg per kg), and pentamidine (20 mg per kg) were tested for their PK. Tissue samples were collected as described above in Example 23. Briefly, blood samples (approximately […]) were collected under light isoflurane anesthesia from retro orbital plexus of mice at 0.5, 1, 3, 8, 48 and 72 hr. Plasma samples were separated by centrifugation at 2,000×g for 6 minutes and stored below −70±10° C. until bioanalysis. Immediately after collection of blood, animals were euthanized using excess CO2 asphyxiation and samples were collected from set of five mice at each time point. Collected tissue samples were immediately dipped and rinsed three times in ice cold PBS (for 5-10 seconds/rinse using ˜5-10 mL fresh PBS in disposable petri dish for each rinse) and dried on blotting paper. Tissue samples were homogenized using ice-cold phosphate buffer saline (pH7.4) and homogenates were stored below −70±10° C. until analysis. Total homogenate volume was three times the tissue weight except for liver samples, total homogenate volume was ten times the liver weight. Bioanalysis process was determined by fit-for-purpose LC-MS/MS method.
Calibration standards were prepared by spiking the test compound into blank plasma. 10 μL of working calibration standard was spiked into 190 μL of blank Mice Plasma or tissue homogenate to generate linearly spiked calibration standards. Calibrator concentrations were 5,000, 2,000, 1,000, 200, 100, 20, 10, 2 and 1 ng/mL. Calibration standard samples were processed along with the test samples. Twenty-five μL aliquots of plasma or tissue homogenate test samples were treated with 100 μL of acetonitrile containing internal standard (500 ng/mL Glipizide). Samples were vortexed for 5 minutes. Samples were centrifuged for 10 minutes at a speed of 4000 rpm at 4° C. Following centrifugation, 100 μL of clear supernatant was transferred in 96-well plates of and analyzed using LC-MS/MS. Chromatographic separation was achieved using a Kintex Polar column (C18, 100×4.6 mm, 5μ) and column oven temperature 45° C. For compound 1 diHCl the mobile phase A was water with 0.1% formic acid in Acetonitrile; mobile phase B was 10 mM ammonium formate. However, the mobile phase for pentamidine and Compound 5 mobile phase A was water with 0.1% formic acid and mobile phase B acetonitrile with 0.1% formic acid.
The gradient program for Compound 1 was as follows: 5% B (1-2.40 min), 90% B (2.60-3.00 min), and the initial for B was 90%. The retention rate was 1.47 per minute and the internal standard Glipizide was 1 per 9 minutes. The column was maintained at 45° C. For pentamidine and Compound 5, analysis was performed using 233 MassSpec by AB Sciex API5000 with Turbo Ion Spray interface operating in a positive ionization mode. Quantification was performed using multiple reaction monitoring (MRM) method with the transitions of (m/z) 328 à (m/z) 311 for Compound 5 and (m/z) 548 à (m/z) 366 for Edoxaban (internal standard). While, for pentamidine (m/z) 341 à (m/z) 324 and (m/z) 548 à (m/z) 366 for Verapmil (internal standard).
The gradient program for Compound 5 was as follows: 10% B (0-0.2 min), 95% B (1.5-2 min), the initial for B was 10% and it stopped at 2.6 mins. The flow rate was 0.5 mL/min. The gradient program for pentamidine was as follows: 10% B (0-0.2 min), 95% B (1.4-2 min), the initial for B was 10% and it stopped at 2.5 mins. The flow rate was 0.5 mL/min.

[2] = tested on: A549-NLR cells with anti-CD3 stimulated PBMC; experiment: Primary human T cell killing assay; format: cell-based
Experimental: In this study, A549-NLR cells were cultured alone or with PBMC's isolated from blood of three healthy donors in the presence of anti-CD3 stimulation. […] A549 growth was quantified by enumerating NucLight+ cells and A549 apoptosis by Caspase-3/7+ expression (colocalised to NucLight signal) every 2 hours for 96 hours.
All test conditions were applied to A549-NLR cells in the presence of stimulated PBMC. The number of A549 cells was tracked by IncuCyte live cell imaging over 96 hrs. The number of A549 cells at each time-point was counted and expressed as a percentage of the starting number (on a per well basis). At each time-point, the frequency of target cell apoptosis was quantified.

MHCC97H = experiment: CellTiter-Glo cell viability, liver cell lines, 8 days; format: cell-based; conditions: Homo sapiens, 192 h
Experimental: as §1

HepG2 = experiment: as above; format: cell-based; conditions: Homo sapiens, 192 h; HepG2, 8 days
Experimental: as §1

HUH1 = experiment: as above; format: cell-based; conditions: Homo sapiens, HuH-1, 192 h; HUH1, 8 days
Experimental: as §1

Hep3B = experiment: as above; format: cell-based; conditions: Homo sapiens, 192 h
Experimental: as §1

HCCLM3 = experiment: as above; format: cell-based; conditions: Homo sapiens, 192 h; HCCLM3, 8 days
Experimental: as §1

HUH7 = experiment: as above; format: cell-based; conditions: Homo sapiens, Huh-7, 192 h; HUH7, 8 days
Experimental: as §1

Structure (SMILES): N.N.[Cl][Pt][Cl] [Cisplatin, cisplatin, reference compound]
IC50 (Hep3B-luc): 5100 nM
IC50 (DU4475): 600 nM
IC50 (ZR-75-1): 1020 nM
IC50 (HCC1954): 770 nM

Structure (SMILES): N=C(N)c1ccc(OCCCCOc2ccc(C(=N)N)nc2)cc1 [Compound 5, 5-(4-(4-carbamimidoylphenoxy)butoxy)picolinimidamide]
IC50 (HEP3B2.7-1; HEP3B2.7-1, Table 5, similar experiment): 207 nM
IC50 (SK-HEP-1; SK-HEP1, SK-HEP-1, Table 5, similar experiment): 730 nM
exposure to the liver vs pentamidine (20 mpk) ([1]; Compound 1 20 mpk, Compound 5 10 mpk): greater exposure to the liver than pentamidine
half-life relative to Compound 1 ([1]; liver): approximately 3 fold
half-life vs pentamidine ([1]; liver): higher half-life than pentamidine
tissue exposure ([1]; liver, small intestine, ileum): increased exposure in the liver as well as small intestine and ileum
exposure to the plasma ([1]; plasma vs other tissues): low in comparison to other tissues
IC50 (NCI-H209): 2780 nM
IC50 (NCI-H69): 876 nM
microsomal CLint (Human microsomal CL rate): 3.9 µL/min/mg

Structure (SMILES): N=C(N)c1cnc(OCCCCCOc2cnc(C(=N)N)cn2)cn1 [Compound 7, 5,5′-(pentane-1,5-diylbis(oxy))bis(pyrazine-2-carboximidamide)]
immune cell-mediated A549 cell apoptosis (Caspase-3/7+) ([2]; 0.3, 1 and 3 μM, three donors, 96 hours): enhancement of immune cell-mediated A549 cell apoptosis in 2 of 3 donors in a dose dependent manner
effect compared with positive control (IL-2) ([2]; highest concentration tested (3 μM)): comparable effect to the positive control (IL-2)
IC50 (NCI-H69): 804 nM

The next lines start with results.

IC50 (NCI-H209): 9380 nM
IC50 (SW1271): 1600 nM
IC50 (NCI-H69): 3480 nM
microsomal CLint (Human microsomal CL rate): 9.8 µL/min/mg
Structure (SMILES): N=C(N)c1ccc(OCCCCCOc2ccc(C(=N)N)cn2)cc1 [Compound 2, 6-((5-(4-carbamimidoylphenoxy)pentyl)oxy)nicotinimidamide]

IC50 (NCI-H209): 3470 nM
IC50 (SW1271): 3470 nM
IC50 (NCI-H69): 2910 nM
Structure (SMILES): N=C(N)c1ccc(OCCCCCOc2cnc(C(=N)N)nc2)cc1 [Compound 3, 5-((5-(4-carbamimidoylphenoxy)pentyl)oxy)pyrimidine-2-carboximidamide]

IC50 (HepG2): 290 nM
IC50 (HUH1): 1790 nM
IC50 (Hep3B): 160 nM
IC50 (HCCLM3): 6900 nM
IC50 (HEP3B2.7-1; HEP3B2.7-1, Table 4): 280 nM
IC50 (HUH7): 680 nM
IC50 (SK-HEP-1; SK-HEP1, SK-HEP-1, first listing in Table 4): 1450 nM
IC50 (SK-HEP-1; SK-HEP1, SK-HEP-1, second listing in Table 4): 720 nM
IC50 (Hep3B-luc; Hep 3B-Luc, 192 h): 800 nM
Structure (SMILES): N=C(N)c1ccc(OCCCCCOc2ccc(C(=N)N)cc2)cc1 [Pentamidine, 1,5-bis(4-amidinophenoxy)pentane]
IC50 (MHCC97H): 4260 nM
